Data reported in patent US20230085307A1, “PYRIDAZINONE COMPOUND AND HERBICIDE” (NISSAN CHEMICAL CORPORATION, priority 2019, published 2023).

Tests used:
[1] = system: barnyard grass; assay: Test Example 3: herbicidal effect by foliage application, Wagner pot (Table 18, symbol H); type: in vivo, barnyard grass (Echinochloa crus-galli); conditions: 320 g/ha
Procedure, shortened: (§1)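 Plants were sown in alluvial soil held under 0.1–0.5 cm standing water and grown 14 days in a greenhouse at 25–30 °C. An emulsifiable formulation, water-diluted to the set dose, was then sprayed onto the foliage, and effects were scored three weeks later using previously defined criteria.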

[2] = system: velvetleaf; assay: Test Example 4: herbicidal effect by soil treatment (Table 19, symbol M); type: in vivo, velvetleaf (Abutilon theophrasti); conditions: AAH 320 g/ha
Procedure, shortened: (§2)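 Three weeks of greenhouse growth at 25° C. to 30° C. followed a uniform surface spray of water-diluted emulsion at a predetermined herbicide amount. Seeds had been sown beforehand under about 1.5 cm of sterilized diluvial soil. Grading followed criteria set out in an earlier test.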

[3] = system: barnyard grass; assay: Test Example 5: herbicidal effect by foliage application, plastic box (Table 20, symbol H); type: in vivo, barnyard grass (Echinochloa crus-galli); conditions: foliage application, AAH 320 g/ha, three weeks after application
Procedure, shortened: (§3)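 Plants sown in sterilized diluvial soil and grown 14 days in a greenhouse at 25° C to 30° C, then sprayed on the foliage with the compound's emulsion diluted in water to a predetermined herbicide amount. Injury to weeds and crops scored three weeks after application on a visual rating scale.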

[4] = system: rice flat sedge; assay: Test Example 3: herbicidal effect by foliage application, Wagner pot (Table 18, symbol E); type: in vivo, rice flat sedge (Cyperus iria); conditions: 320 g/ha
Procedure, shortened: as §1

[5] = system: chickweed; assay: Test Example 5: herbicidal effect by foliage application, plastic box (Table 20, symbol P); type: in vivo, common chickweed (Stellaria media); conditions: foliage application, AAH 320 g/ha, three weeks after application
Procedure, shortened: as §3

[6] = system: redroot pigweed; assay: Test Example 4: herbicidal effect by soil treatment (Table 19, symbol N); type: in vivo, redroot pigweed (Amaranthus retroflexus); conditions: AAH 320 g/ha
Procedure, shortened: as §2

[7] = system: southern crabgrass; assay: Test Example 5: herbicidal effect by foliage application, plastic box (Table 20, symbol F); type: in vivo, southern crabgrass (Digitaria ciliaris); conditions: foliage application, AAH 320 g/ha, three weeks after application
Procedure, shortened: as §3

[8] = system: velvetleaf; assay: Test Example 5: herbicidal effect by foliage application, plastic box (Table 20, symbol M); type: in vivo, velvetleaf (Abutilon theophrasti); conditions: foliage application, AAH 320 g/ha, three weeks after application
Procedure, shortened: as §3

[9] = system: Chinese sprangletop; assay: Test Example 3: herbicidal effect by foliage application, Wagner pot (Table 18, symbol D); type: in vivo, chinese sprangletop (Leptochloa chinensis); conditions: 320 g/ha
Procedure, shortened: as §1

[10] = system: chickweed; assay: Test Example 4: herbicidal effect by soil treatment (Table 19, symbol P); type: in vivo, common chickweed (Stellaria media); conditions: AAH 320 g/ha
Procedure, shortened: as §2

[11] = system: barnyard grass; assay: Test Example 4: herbicidal effect by soil treatment (Table 19, symbol H); type: in vivo, barnyard grass (Echinochloa crus-galli); conditions: AAH 320 g/ha
Procedure, shortened: as §2

[12] = system: green foxtail; assay: Test Example 5: herbicidal effect by foliage application, plastic box (Table 20, symbol G); type: in vivo, green foxtail (Setaria viridis); conditions: foliage application, AAH 320 g/ha, three weeks after application
Procedure, shortened: as §3

[13] = system: Italian ryegrass; assay: Test Example 5: herbicidal effect by foliage application, plastic box (Table 20, symbol K); type: in vivo, Italian ryegrass (Lolium multiflorum); conditions: foliage application, AAH 320 g/ha, three weeks after application
Procedure, shortened: as §3

[14] = system: persian speedwell; assay: Test Example 5: herbicidal effect by foliage application, plastic box (Table 20, symbol R); type: in vivo, Persian speedwell (Veronica persica); conditions: foliage application, AAH 320 g/ha, three weeks after application
Procedure, shortened: as §3

[15] = system: Italian ryegrass; assay: Test Example 4: herbicidal effect by soil treatment (Table 19, symbol K); type: in vivo, Italian ryegrass (Lolium multiflorum); conditions: AAH 320 g/ha
Procedure, shortened: as §2

[16] = system: wild oat; assay: Test Example 4: herbicidal effect by soil treatment (Table 19, symbol I); type: in vivo, wild oat (Avena fatua); conditions: AAH 320 g/ha
Procedure, shortened: as §2

[17] = system: lambsquarters; assay: Test Example 4: herbicidal effect by soil treatment (Table 19, symbol O); type: in vivo, lambsquarters (Chenopodium album); conditions: AAH 320 g/ha
Procedure, shortened: as §2

[18] = system: windgrass; assay: Test Example 5: herbicidal effect by foliage application, plastic box (Table 20, symbol L); type: in vivo, windgrass (Apera spica-venti); conditions: foliage application, AAH 320 g/ha, three weeks after application
Procedure, shortened: as §3

[19] = system: blackgrass; assay: Test Example 5: herbicidal effect by foliage application, plastic box (Table 20, symbol J); type: in vivo, blackgrass (Alopecurus myosuroides); conditions: foliage application, AAH 320 g/ha, three weeks after application
Procedure, shortened: as §3

[20] = system: redroot pigweed; assay: Test Example 5: herbicidal effect by foliage application, plastic box (Table 20, symbol N); type: in vivo, redroot pigweed (Amaranthus retroflexus); conditions: foliage application, AAH 320 g/ha, three weeks after application
Procedure, shortened: as §3

[21] = system: persian speedwell; assay: Test Example 4: herbicidal effect by soil treatment (Table 19, symbol R); type: in vivo, Persian speedwell (Veronica persica); conditions: AAH 320 g/ha
Source text: [Test Example 4] Herbicidal Effect Test by Soil Treatment
Sterilized diluvial soil was placed in a plastic box having a length of 21 cm, a width of 13 cm, and a depth of 7 cm. The seeds of each of southern crabgrass, green foxtail, barnyard grass, wild oat, blackgrass, Italian ryegrass, windgrass, velvetleaf, redroot pigweed, lambsquarters, chickweed, false cleavers, persian speedwell, corn, soybean, rice, wheat, beet, and rapeseed were sowed in a spot-like manner and covered with the soil having a thickness of about 1.5 cm. Subsequently, the emulsion agent of the compound of the present invention prepared according to Formulation Example 2 was diluted with water so as to achieve a predetermined herbicide amount, and the diluted emulsion agent was uniformly applied to the surface of the soil with a small-sized spray. The plastic box was placed in a greenhouse at 25° C. to 30° C. for growth of the plants. Three weeks after the herbicide application, the effect of the herbicide on each plant was evaluated according to the criteria of Test Example 1.

[22] = system: green foxtail; assay: Test Example 4: herbicidal effect by soil treatment (Table 19, symbol G); type: in vivo, green foxtail (Setaria viridis); conditions: AAH 320 g/ha
Procedure, shortened: as §2

[23] = system: southern crabgrass; assay: Test Example 4: herbicidal effect by soil treatment (Table 19, symbol F); type: in vivo, southern crabgrass (Digitaria ciliaris); conditions: AAH 320 g/ha
Procedure, shortened: as §2

[24] = system: lambsquarters; assay: Test Example 5: herbicidal effect by foliage application, plastic box (Table 20, symbol O); type: in vivo, lambsquarters (Chenopodium album); conditions: foliage application, AAH 320 g/ha, three weeks after application
Procedure, shortened: as §3

[25] = system: wild oat; assay: Test Example 5: herbicidal effect by foliage application, plastic box (Table 20, symbol I); type: in vivo, wild oat (Avena fatua); conditions: foliage application, AAH 320 g/ha, three weeks after application
Procedure, shortened: as §3

## CCCC(=O)Oc1c(C)nn(C)c(=O)c1-c1c(-c2ccc(C(F)(F)F)cc2OC)sc2ccccc12 [1-156]
[1]
  herbicidal effect on H (barnyard grass), rating 0-5: 3 (Herbicidal rate of 40% or more and less than 70%)
[2]
  M: velvetleaf, herbicidal effect rating: 0 (Herbicidal rate of 5% or less (almost no effect))
[3]
  H: barnyard grass, herbicidal effect: 1 (Herbicidal rate of 5% or more and less than 20%)
[4]
  herbicidal effect on E (rice flat sedge), rating 0-5: 3 (Herbicidal rate of 40% or more and less than 70%)
[5]
  P: chickweed, herbicidal effect: 5 (Herbicidal rate of 90% or more (almost completely withered))
[6]
  N: redroot pigweed, herbicidal effect rating: 0 (Herbicidal rate of 5% or less (almost no effect))
[7]
  F: southern crabgrass, herbicidal effect: 0 (Herbicidal rate of 5% or less (almost no effect))
[8]
  M: velvetleaf, herbicidal effect: 0 (Herbicidal rate of 5% or less (almost no effect))
[9]
  herbicidal effect on D (Chinese sprangletop), rating 0-5: 3 (Herbicidal rate of 40% or more and less than 70%)
[10]
  P: chickweed, herbicidal effect rating: 0 (Herbicidal rate of 5% or less (almost no effect))
[11]
  H: barnyard grass, herbicidal effect rating: 0 (Herbicidal rate of 5% or less (almost no effect))
[12]
  G: green foxtail, herbicidal effect: 3 (Herbicidal rate of 40% or more and less than 70%)
[13]
  K: Italian ryegrass, herbicidal effect: 4 (Herbicidal rate of 70% or more and less than 90%)
[14]
  R: persian speedwell, herbicidal effect: 3 (Herbicidal rate of 40% or more and less than 70%)
[15]
  K: Italian ryegrass, herbicidal effect rating: 3 (Herbicidal rate of 40% or more and less than 70%)
[16]
  I: wild oat, herbicidal effect rating: 0 (Herbicidal rate of 5% or less (almost no effect))
[17]
  O: lambsquarters, herbicidal effect rating: 3 (Herbicidal rate of 40% or more and less than 70%)
[18]
  L: windgrass, herbicidal effect: 5 (Herbicidal rate of 90% or more (almost completely withered))
[19]
  J: blackgrass, herbicidal effect: 0 (Herbicidal rate of 5% or less (almost no effect))
[20]
  N: redroot pigweed, herbicidal effect: 3 (Herbicidal rate of 40% or more and less than 70%)
[21]
  R: persian speedwell, herbicidal effect rating: 0 (Herbicidal rate of 5% or less (almost no effect))
[22]
  G: green foxtail, herbicidal effect rating: 0 (Herbicidal rate of 5% or less (almost no effect))
[23]
  F: southern crabgrass, herbicidal effect rating: 0 (Herbicidal rate of 5% or less (almost no effect))
[24]
  O: lambsquarters, herbicidal effect: 2 (Herbicidal rate of 20% or more and less than 40%)
[25]
  I: wild oat, herbicidal effect: 3 (Herbicidal rate of 40% or more and less than 70%)
